Measurements as given in patent publication US20210346357A1 (priority 2020, published 2021).

Key:
Abl1 = Abl1 (Homo sapiens, UniProt P00519); assay: Biochemical ABL1 kinase assay (33P-ATP); details: read-out: inhibition in the Abl1 assay
Abl2 = Abl2 (Homo sapiens, UniProt P42684); assay: biochemical; details: read-out: inhibition in the Abl2 assay
Abl2, sequence (P42684 whole entry): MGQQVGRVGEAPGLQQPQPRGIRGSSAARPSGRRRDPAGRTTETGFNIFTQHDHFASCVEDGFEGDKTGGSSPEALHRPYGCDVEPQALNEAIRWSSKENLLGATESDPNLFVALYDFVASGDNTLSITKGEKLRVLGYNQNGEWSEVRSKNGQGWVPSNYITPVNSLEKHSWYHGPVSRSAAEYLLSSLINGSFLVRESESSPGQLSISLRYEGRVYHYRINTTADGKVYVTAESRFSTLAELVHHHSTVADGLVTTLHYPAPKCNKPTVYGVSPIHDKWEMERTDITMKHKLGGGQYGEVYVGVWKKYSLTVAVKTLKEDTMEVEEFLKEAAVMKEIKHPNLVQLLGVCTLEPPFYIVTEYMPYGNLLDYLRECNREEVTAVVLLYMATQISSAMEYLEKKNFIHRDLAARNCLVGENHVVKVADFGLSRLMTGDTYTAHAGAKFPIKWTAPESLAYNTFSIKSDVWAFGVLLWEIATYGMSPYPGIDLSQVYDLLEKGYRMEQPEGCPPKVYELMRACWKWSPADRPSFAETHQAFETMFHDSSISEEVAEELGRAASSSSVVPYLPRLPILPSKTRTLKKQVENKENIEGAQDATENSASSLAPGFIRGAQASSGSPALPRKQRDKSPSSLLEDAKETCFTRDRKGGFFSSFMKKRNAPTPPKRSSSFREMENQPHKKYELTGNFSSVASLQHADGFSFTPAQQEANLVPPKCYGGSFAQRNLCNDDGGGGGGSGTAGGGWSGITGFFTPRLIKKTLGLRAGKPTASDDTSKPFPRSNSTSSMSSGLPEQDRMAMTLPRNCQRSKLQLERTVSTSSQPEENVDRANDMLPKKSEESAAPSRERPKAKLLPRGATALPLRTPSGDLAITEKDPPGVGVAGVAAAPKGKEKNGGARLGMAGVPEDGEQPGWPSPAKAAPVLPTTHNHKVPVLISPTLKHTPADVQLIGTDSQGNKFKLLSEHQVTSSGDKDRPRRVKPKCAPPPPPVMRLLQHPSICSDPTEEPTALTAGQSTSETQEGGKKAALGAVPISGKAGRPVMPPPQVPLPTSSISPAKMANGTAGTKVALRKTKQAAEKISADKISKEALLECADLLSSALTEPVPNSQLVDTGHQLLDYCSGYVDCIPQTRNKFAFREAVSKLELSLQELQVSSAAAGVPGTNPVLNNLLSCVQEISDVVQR

Abl1, sequence (P00519 whole entry): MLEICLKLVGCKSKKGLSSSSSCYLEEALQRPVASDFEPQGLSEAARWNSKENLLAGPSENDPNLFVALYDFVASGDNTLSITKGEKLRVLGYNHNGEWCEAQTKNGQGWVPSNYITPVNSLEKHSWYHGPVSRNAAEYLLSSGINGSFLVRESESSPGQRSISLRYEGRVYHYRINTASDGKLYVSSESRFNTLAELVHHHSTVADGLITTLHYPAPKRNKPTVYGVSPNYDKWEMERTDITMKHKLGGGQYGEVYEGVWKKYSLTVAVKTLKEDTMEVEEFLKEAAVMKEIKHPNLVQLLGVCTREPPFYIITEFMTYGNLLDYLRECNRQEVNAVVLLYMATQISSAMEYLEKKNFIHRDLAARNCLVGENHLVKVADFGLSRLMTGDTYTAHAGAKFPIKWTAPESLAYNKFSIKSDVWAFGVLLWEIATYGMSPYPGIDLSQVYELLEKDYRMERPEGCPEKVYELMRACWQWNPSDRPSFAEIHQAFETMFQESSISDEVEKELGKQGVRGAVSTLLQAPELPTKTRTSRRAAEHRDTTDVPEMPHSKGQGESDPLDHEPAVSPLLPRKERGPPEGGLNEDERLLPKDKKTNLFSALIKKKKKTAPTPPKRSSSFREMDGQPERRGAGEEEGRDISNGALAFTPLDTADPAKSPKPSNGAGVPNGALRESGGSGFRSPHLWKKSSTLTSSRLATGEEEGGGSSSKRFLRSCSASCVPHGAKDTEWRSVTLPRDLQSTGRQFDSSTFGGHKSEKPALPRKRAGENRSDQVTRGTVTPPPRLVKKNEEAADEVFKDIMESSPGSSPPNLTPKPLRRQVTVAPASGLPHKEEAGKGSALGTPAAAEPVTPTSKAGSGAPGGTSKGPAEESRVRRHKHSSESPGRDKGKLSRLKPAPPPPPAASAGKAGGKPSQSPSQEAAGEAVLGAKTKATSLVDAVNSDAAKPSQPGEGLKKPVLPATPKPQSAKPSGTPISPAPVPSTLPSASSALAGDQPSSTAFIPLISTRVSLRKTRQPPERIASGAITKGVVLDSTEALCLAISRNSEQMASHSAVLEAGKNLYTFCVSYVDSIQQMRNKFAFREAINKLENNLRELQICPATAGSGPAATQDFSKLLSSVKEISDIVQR

SMILES: CCS(=O)(=O)N1CC(CC#N)(n2cc(-c3ncnc4[nH]ccc34)cn2)C1 [baricitinib, reference compound]
- inhibition at 10 µM (Abl1): 80%
- inhibition at 10 µM (Abl2): 35%
